System: HUVECs
Assay: Matrigel tube formation assay
Type: cell-based, human
Settings: HUVECs on Matrigel, six hours; PEP 2.5×10^11 vesicles/mL, VEGF 100 ng/ml
Description: 96-well plates (Corning, Inc., Corning, NY) were pre-coated with MATRIGEL (Corning Life Sciences, Corning, NY) and allowed to solidify for one hour at 37° C. before cell seeding. GFP-tagged HUVECs (1×10^4 cells/well) were then added to individual wells in medium designated treatment. Images were acquired at time 0, one hour, three hours, and six hours post-treatment with an inverted microscope (DMI6000 B, Leica Microsystems GmbH, Wetzlar, Germany). All images were analyzed with Angiotool (Zudaire et al., 2011, PLoS One 6:e27385).

VEGF
number of junctions per field: 59.75
total length of branches per field: 2459.59 pixels
